Source: US11684306B2, “Stable water isotope labeling and magnetic resonance imaging for visualization of the presence of and prediction of the likelihood of occurence of rapidly dividing cells” (THE UNITED STATES OF AMERICA, AS REPRESENTED BY THE …, priority 2016, dated 2023)

What was measured:
Type in all cases: in vivo
[1] = Safety of deuterium enrichment in total body water
[2] = Total body water (TBW) deuterium enrichment in mice
Source text: In one aspect, deuterium labeling was achieved by intraperitoneal injection of 100% ^2H2O with NaCl added to make this fluid isotonic, then maintaining the achieved 5% ^2H enrichment in total body water (TBW) by providing 8% ^2H2O in drinking water to mice. Deuterium within total body water diffuses rapidly into all tissues and is excreted unchanged by the kidneys. Therefore, according to various embodiments, deuterium labeled fluids may be provided to an animal or human subject via injected and/or ingested fluid yielding a deuterium concentration of about 5% TBW. […] Higher TBW enrichments (up to 20% TBW ^2H) may improve sensitivity of dMRI detection. Such enrichments should be safe, as deuterium is non-radioactive, tasteless, colorless and without known side effects at these doses.
FIG. 9 is an illustration for one embodiment of a scheme 900 for labeling and imaging rapidly dividing cells. As shown, the method begins with total body irradiation (TBI) conditioning performed one day prior to the infusion of a transplant graft (day −1), indicated as 902. In the embodiment shown, the bone marrow transplant (BMT) graft, containing bone marrow stem cells and T cells from the donor spleen, is infused on day 0, indicated as 904. […]
For measuring ^2H2O water levels in TBW (e.g. urine), we developed a simple and quantitative headspace-GC-NCI-MS method (publication pending). […]

[3] = Total body water (TBW) deuterium enrichment in people

time for TBW deuterium enrichment to return to baseline (0.015%) after supplementation is discontinued [2]: approximately 7 days
time for TBW deuterium enrichment to return to baseline (0.015%) after supplementation is discontinued [3]: ~14 days
SMILES: [2H]O[2H] [deuterated water]
toxicity ([1]; doses up to 20% in total body water): non-toxic
safety of higher TBW enrichment ([1]; enrichments up to and including approximately 20% TBW): safely achieved
effect on rates of DNA synthesis ([1]; in vivo): does not affect rates of DNA synthesis
